Values joined by “and” are separate entries in the source; they are usually repeats but may differ in a detail not shown here. Equal values may be shown once. Active and inactive are the calls of the source. No rule for the calls is given here. Some results are limits rather than exact numbers.

The term IC50 denotes the midpoint of a concentration-inhibition curve.

This test concerns ADSC/ECFC co-culture, VEGF-stimulated, CD31 tube area. Nature of the test: inhibition of endothelial tube formation, dose response, imaging, VEGF stimulation, CD31 staining, tube area, IC50 (AID 1117337).
With `O=C(Nc1ccc([N+](=O)[O-])cc1)Nc1ccc([N+](=O)[O-])cc1`, the IC50 is > 10 µM (inactive).

On to `CC[C@]1(O)C[C@@H]2CN(CCc3c([nH]c4ccccc34)[C@@](C(=O)OC)(c3cc4c(cc3OC)N(C)[C@H]3[C@@](O)(C(=O)OC)[C@H](OC(C)=O)[C@]5(CC)C=CCN6CC[C@]43[C@@H]65)C2)C1`, for which the 50% inhibitory concentration (IC50) was 0.0026 µM and 0.0023 µM.

In the case of `COC(=O)Nc1nc2ccc(Sc3ccccc3)cc2[nH]1`, the IC50 was 0.207 µM.

In the case of `COc1ccc(CCN2CCC(Nc3nc4ccccc4n3Cc3ccc(F)cc3)CC2)cc1`, the IC50 is > 10 µM (inactive).

As for `C#C[C@]1(OC(C)=O)CC[C@H]2[C@@H]3CCC4=C/C(=N/O)CC[C@@H]4[C@H]3CC[C@@]21CC`, the IC50 was > 10 µM (inactive).

Turning to `Cc1c(N)cccc1C(F)(F)F`, the IC50 was > 10 µM (inactive).

Consider `O=C1NCCN1CCN1CCC(c2cn(-c3ccc(F)cc3)c3ccc(Cl)cc23)CC1`, for which the IC50 is > 10 µM (inactive).

Take `Cn1ccc2cc3c(cc21)CCN3C(=O)Nc1cccnc1`: the IC50 is > 10 µM (inactive).

For `COCC(C)N(C(=O)CCl)c1c(C)csc1C` (centres undefined), the IC50 is > 10 µM (inactive).

As to `Oc1ccc(Cl)cc1Sc1cc(Cl)ccc1O`, the IC50 was 3.53 µM.

Regarding `CC(C)Cn1cnc2c1c(=O)n(C)c(=O)n2C`, the IC50 is > 10 µM (inactive).

In the case of `COC(=O)Nc1nc2ccc(C(=O)c3ccccc3)cc2[nH]1`, the half-maximal inhibitory concentration (IC50) is 0.37 µM.

As for `COC(=O)C1=C(C)NC(C)=C(C(=O)O[C@@H]2CCCN(Cc3ccccc3)C2)[C@@H]1c1cccc([N+](=O)[O-])c1`, the IC50 is > 10 µM (inactive).

Regarding `O=C(N/N=C/c1ccccc1O)c1ccncc1`, the IC50 is > 10 µM (inactive).

The values above are taken from PubChem BioAssay AID1117337 (Cheminformatics & Chemogenomics Research Group (CCRG), …, 2015).
